Source: EP4714953A1, “MELANOCORTIN 2-TYPE RECEPTOR ANTAGONIST” (Scohia Pharma, Inc., priority 2023, dated 2024)

Molecular target: T1, human MC2R (Homo sapiens, UniProt Q01718)
T1 construct: host or cells: GeneBLAzer MC2R-CRE-bla CHO-K1 cells
Experiment: Measurement of human MC2R inhibitory activity using intracellular cAMP concentration as an indicator
Assay type: cell-based
Details: test compound at 1 µM; GeneBLAzer MC2R-CRE-bla CHO-K1 cells; ACTH (Human 1-24) final concentration 3 pM; intracellular cAMP by HTRF; read-out: MC2R inhibition rate (% of inhibition)
In short: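 MC2R-CRE-bla CHO-K1 cells at 1,500/well in HBSS with 10 mM HEPES pH 7.5, 0.01% BSA and 500 µM IBMX, preincubated 20 min with compound, then stimulated with 3 pM ACTH(1-24) for 30 min at room temperature. cAMP read by HTRF; % inhibition from the ACTH-stimulated and unstimulated windows.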

T1 sequence (Q01718 whole entry): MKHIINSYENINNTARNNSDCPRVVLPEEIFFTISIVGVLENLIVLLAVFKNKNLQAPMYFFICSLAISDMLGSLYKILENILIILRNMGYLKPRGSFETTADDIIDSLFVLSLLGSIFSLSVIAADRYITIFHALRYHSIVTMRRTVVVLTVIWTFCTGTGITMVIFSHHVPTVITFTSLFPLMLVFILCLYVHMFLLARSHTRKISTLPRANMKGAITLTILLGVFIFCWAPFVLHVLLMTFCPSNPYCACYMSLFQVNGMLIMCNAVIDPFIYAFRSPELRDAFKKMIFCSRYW
T1 sequence (Q8TCY5 whole entry partner): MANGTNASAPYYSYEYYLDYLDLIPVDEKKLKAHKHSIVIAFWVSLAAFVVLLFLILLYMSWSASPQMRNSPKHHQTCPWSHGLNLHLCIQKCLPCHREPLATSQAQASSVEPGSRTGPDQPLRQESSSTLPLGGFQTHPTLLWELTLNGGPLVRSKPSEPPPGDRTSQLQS

Compound | inhibition at 1 µM [%]
CCOc1ncccc1-c1ccc(N2C[C@H]3CN(c4ccc(Cl)cc4C(F)(F)F)C(=O)N3C[C@H]2CC)c(C(=O)N[C@H]2CC(=O)N(C)C2)n1 [Example 50, 3-[(6R,8aS)-2-[4-chloro-2-(trifluoromethyl)phenyl]-6-ethyl-3-oxo-5,6,8,8a-tetrahydro-1H-imidazo[1,5-a]pyrazin-7-yl]-6-(2-ethoxypyridin-3-yl)-N-[(3S)-1-methyl-5-oxopyrrolidin-3-yl]pyridine-2-carboxamide] | 100
CCOc1ncccc1-c1ccc(N2C[C@H]3CN(c4ccc(F)cc4C(F)(F)F)C(=O)N3C[C@H]2CC)c(C(=O)N[C@H]2CNC(=O)C2)n1 [Example 51, 3-[(6R,8aS)-6-ethyl-2-[4-fluoro-2-(trifluoromethyl)phenyl]-3-oxo-5,6,8,8a-tetrahydro-1H-imidazo[1,5-a]pyrazin-7-yl]-6-(2-ethoxypyridin-3-yl)-N-[(3R)-5-oxopyrrolidin-3-yl]pyridine-2-carboxamide] | 100
CCOc1ncccc1-c1ccc(N2C[C@H]3CN(c4ccc(F)cc4C(F)(F)F)C(=O)N3C[C@H]2CC)c(C(=O)N[C@@H]2CC(=O)N(C)C2)n1 [Example 52, 3-[(6R,8aS)-6-ethyl-2-[4-fluoro-2-(trifluoromethyl)phenyl]-3-oxo-5,6,8,8a-tetrahydro-1H-imidazo[1,5-a]pyrazin-7-yl]-6-(2-ethoxypyridin-3-yl)-N-[(3R)-1-methyl-5-oxopyrrolidin-3-yl]pyridine-2-carboxamide] | 100
CCOc1ncccc1-c1ccc(N2C[C@H]3CN(c4ccc(Cl)cc4C#N)C(=O)N3C[C@H]2CC)c(C(=O)N[C@H]2CNC(=O)C2)n1 [Example 53, 3-[(6R,8aS)-2-(4-chloro-2-cyanophenyl)-6-ethyl-3-oxo-5,6,8,8a-tetrahydro-1H-imidazo[1,5-a]pyrazin-7-yl]-6-(2-ethoxypyridin-3-yl)-N-[(3R)-5-oxopyrrolidin-3-yl]pyridine-2-carboxamide] | 100
CCOc1ncccc1-c1ccc(N2C[C@H]3CN(c4ccc(Cl)cc4C#N)C(=O)N3C[C@H]2CC)c(C(=O)N[C@@H]2CC(=O)N(C)C2)n1 [Example 54, 3-[(6R,8aS)-2-(4-chloro-2-cyanophenyl)-6-ethyl-3-oxo-5,6,8,8a-tetrahydro-1H-imidazo[1,5-a]pyrazin-7-yl]-6-(2-ethoxypyridin-3-yl)-N-[(3R)-1-methyl-5-oxopyrrolidin-3-yl]pyridine-2-carboxamide] | 100
CCOc1ncccc1-c1ccc(N2C[C@H]3CN(c4ccc(F)cc4C#N)C(=O)N3C[C@H]2CC)c(C(=O)N[C@H]2CNC(=O)C2)n1 [Example 55, 3-[(6R,8aS)-2-(2-cyano-4-fluorophenyl)-6-ethyl-3-oxo-5,6,8,8a-tetrahydro-1H-imidazo[1,5-a]pyrazin-7-yl]-6-(2-ethoxypyridin-3-yl)-N-[(3R)-5-oxopyrrolidin-3-yl]pyridine-2-carboxamide] | 100
CCOc1ncccc1-c1ccc(N2C[C@H]3CN(c4ccc(C(F)(F)F)cc4C#N)C(=O)N3C[C@H]2CC)c(C(=O)N[C@H]2CNC(=O)C2)n1 [Example 56, 3-[(6R,8aS)-2-[2-cyano-4-(trifluoromethyl)phenyl]-6-ethyl-3-oxo-5,6,8,8a-tetrahydro-1H-imidazo[1,5-a]pyrazin-7-yl]-6-(2-ethoxypyridin-3-yl)-N-[(3R)-5-oxopyrrolidin-3-yl]pyridine-2-carboxamide] | 100
CCOc1ncccc1-c1ccc(N2C[C@H]3CN(c4ccc(C(F)(F)F)cc4C#N)C(=O)N3C[C@H]2CC)c(C(=O)N[C@@H]2CC(=O)N(C)C2)n1 [Example 57, 3-[(6R,8aS)-2-[2-cyano-4-(trifluoromethyl)phenyl]-6-ethyl-3-oxo-5,6,8,8a-tetrahydro-1H-imidazo[1,5-a]pyrazin-7-yl]-6-(2-ethoxypyridin-3-yl)-N-[(3R)-1-methyl-5-oxopyrrolidin-3-yl]pyridine-2-carboxamide] | 100
CCOc1ncccc1-c1ccc(N2C[C@H]3CN(c4ccc(F)cc4C#N)C(=O)N3C[C@H]2CC)c(C(=O)N[C@@H]2CC(=O)N(C)C2)n1 [Example 58, 3-[(6R,8aS)-2-(2-cyano-4-fluorophenyl)-6-ethyl-3-oxo-5,6,8,8a-tetrahydro-1H-imidazo[1,5-a]pyrazin-7-yl]-6-(2-ethoxypyridin-3-yl)-N-[(3R)-1-methyl-5-oxopyrrolidin-3-yl]pyridine-2-carboxamide] | 100
CCOc1ncccc1-c1ccc(N2C[C@H]3CN(C4(C(F)(F)F)CC4)C(=O)N3C[C@H]2CC)c(C(=O)N[C@@H]2CC(=O)N(C)C2)n1 [Example 59, 3-[(6R,8aS)-6-ethyl-3-oxo-2-[1-(trifluoromethyl)cyclopropyl]-5,6,8,8a-tetrahydro-1H-imidazo[1,5-a]pyrazin-7-yl]-6-(2-ethoxy-3-pyridinyl)-N-[(3R)-1-methyl-5-oxopyrrolidin-3-yl]pyridine-2-carboxamide] | 87

More lines, now with the values ahead:

inhibition at 1 µM [%] | Compound
97 | CCOc1ncccc1-c1ccc(N2C[C@H]3CN(c4ccc(Cl)cc4C(F)(F)F)C(=O)N3C[C@H]2C)c(C(=O)N[C@@H]2CC(=O)N(C)C2)n1 [Example 60, 3-[(6R,8aS)-2-[4-chloro-2-(trifluoromethyl)phenyl]-6-methyl-3-oxo-5,6,8,8a-tetrahydro-1H-imidazo[1,5-a]pyrazin-7-yl]-6-(2-ethoxy-3-pyridinyl)-N-[(3R)-1-methyl-5-oxopyrrolidin-3-yl]pyridine-2-carboxamide]
97 | COc1ncccc1-c1ccc(N2C[C@H]3CN(c4ccc(Cl)cc4C(F)(F)F)C(=O)N3C[C@H]2C)c(C(=O)N[C@@H]2CC(=O)N(C)C2)n1 [Example 61, 3-[(6R,8aS)-2-[4-chloro-2-(trifluoromethyl)phenyl]-6-methyl-3-oxo-5,6,8,8a-tetrahydro-1H-imidazo[1,5-a]pyrazin-7-yl]-6-(2-methoxy-3-pyridinyl)-N-[(3R)-1-methyl-5-oxopyrrolidin-3-yl]pyridine-2-carboxamide]
98 | CCOc1ccccc1-c1ccc(N2C[C@H]3CN(C4(C(F)(F)F)CC4)C(=O)N3C[C@H]2CC)c(C(=O)N[C@@H]2CC(=O)N(C)C2)n1 [Example 62, 3-[(6R,8aS)-6-ethyl-3-oxo-2-[1-(trifluoromethyl)cyclopropyl]-5,6,8,8a-tetrahydro-1H-imidazo[1,5-a]pyrazin-7-yl]-6-(2-ethoxyphenyl)-N-[(3R)-1-methyl-5-oxopyrrolidin-3-yl]pyridine-2-carboxamide]
100 | CCOc1ccccc1-c1ccc(N2C[C@H]3CN(c4ccc(Cl)cc4C(F)(F)F)C(=O)N3C[C@H]2C)c(C(=O)N[C@@H]2CC(=O)N(C)C2)n1 [Example 63, 3-[(6R,8aS)-2-[4-chloro-2-(trifluoromethyl)phenyl]-6-methyl-3-oxo-5,6,8,8a-tetrahydro-1H-imidazo[1,5-a]pyrazin-7-yl]-6-(2-ethoxyphenyl)-N-[(3R)-1-methyl-5-oxopyrrolidin-3-yl]pyridine-2-carboxamide]
95 | COc1ccccc1-c1ccc(N2C[C@H]3CN(c4ccc(Cl)cc4C(F)(F)F)C(=O)N3C[C@H]2C)c(C(=O)N[C@@H]2CC(=O)N(C)C2)n1 [Example 64, 3-[(6R,8aS)-2-[4-chloro-2-(trifluoromethyl)phenyl]-6-methyl-3-oxo-5,6,8,8a-tetrahydro-1H-imidazo[1,5-a]pyrazin-7-yl]-6-(2-methoxyphenyl)-N-[(3R)-1-methyl-5-oxopyrrolidin-3-yl]pyridine-2-carboxamide]
89 | CCOc1ncccc1-c1ccc(N2C[C@H]3CN(C4(C(F)(F)F)CCC4)C(=O)N3C[C@H]2CC)c(C(=O)N[C@@H]2CC(=O)N(C)C2)n1 [Example 65, 3-[(6R,8aS)-6-ethyl-3-oxo-2-[1-(trifluoromethyl)cyclobutyl]-5,6,8,8a-tetrahydro-1H-imidazo[1,5-a]pyrazin-7-yl]-6-(2-ethoxy-3-pyridinyl)-N-[(3R)-1-methyl-5-oxopyrrolidin-3-yl]pyridine-2-carboxamide]
97 | CCOc1ccccc1-c1ccc(N2C[C@H]3CN(C4(C(F)(F)F)CCC4)C(=O)N3C[C@H]2CC)c(C(=O)N[C@@H]2CC(=O)N(C)C2)n1 [Example 66, 3-[(6R,8aS)-6-ethyl-3-oxo-2-[1-(trifluoromethyl)cyclobutyl]-5,6,8,8a-tetrahydro-1H-imidazo[1,5-a]pyrazin-7-yl]-6-(2-ethoxyphenyl)-N-[(3R)-1-methyl-5-oxopyrrolidin-3-yl]pyridine-2-carboxamide]
94 | CCOc1ccccc1-c1ccc(N2C[C@H]3CN(c4ccc(Cl)cc4C(F)(F)F)C(=O)N3C[C@H]2CC)c(C(=O)N[C@@H]2CC(=O)N(C)C2)n1 [Example 67, 3-[(6R,8aS)-2-[4-chloro-2-(trifluoromethyl)phenyl]-6-ethyl-3-oxo-5,6,8,8a-tetrahydro-1H-imidazo[1,5-a]pyrazin-7-yl]-6-(2-ethoxyphenyl)-N-[(3R)-1-methyl-5-oxopyrrolidin-3-yl]pyridine-2-carboxamide]
96 | CC[C@@H]1CN2C(=O)N(c3ccc(Cl)cc3C(F)(F)F)C[C@@H]2CN1c1ccc(-c2ccccc2OC)nc1C(=O)N[C@@H]1CC(=O)N(C)C1 [Example 68, 3-[(6R,8aS)-2-[4-chloro-2-(trifluoromethyl)phenyl]-6-ethyl-3-oxo-5,6,8,8a-tetrahydro-1H-imidazo[1,5-a]pyrazin-7-yl]-6-(2-methoxyphenyl)-N-[(3R)-1-methyl-5-oxopyrrolidin-3-yl]pyridine-2-carboxamide]
92 | CC[C@@H]1CN2C(=O)N(c3ccc(Cl)cc3C(F)(F)F)C[C@@H]2CN1c1ccc(-c2cccnc2OC)nc1C(=O)N[C@@H]1CC(=O)N(C)C1 [Example 69, 3-[(6R,8aS)-2-[4-chloro-2-(trifluoromethyl)phenyl]-6-ethyl-3-oxo-5,6,8,8a-tetrahydro-1H-imidazo[1,5-a]pyrazin-7-yl]-6-(2-methoxy-3-pyridinyl)-N-[(3R)-1-methyl-5-oxopyrrolidin-3-yl]pyridine-2-carboxamide]
